The record followed here is patent US11434246B2, “EP4 antagonists” (Eisai R&D Management Co., Ltd., priority 2015, dated 2022).

For orientation: IC50 means the concentration that inhibits the measured activity by half. Low readings indicate inhibition by little substance, high ones a need for much substance.

EP4, sequence (P35408 whole entry): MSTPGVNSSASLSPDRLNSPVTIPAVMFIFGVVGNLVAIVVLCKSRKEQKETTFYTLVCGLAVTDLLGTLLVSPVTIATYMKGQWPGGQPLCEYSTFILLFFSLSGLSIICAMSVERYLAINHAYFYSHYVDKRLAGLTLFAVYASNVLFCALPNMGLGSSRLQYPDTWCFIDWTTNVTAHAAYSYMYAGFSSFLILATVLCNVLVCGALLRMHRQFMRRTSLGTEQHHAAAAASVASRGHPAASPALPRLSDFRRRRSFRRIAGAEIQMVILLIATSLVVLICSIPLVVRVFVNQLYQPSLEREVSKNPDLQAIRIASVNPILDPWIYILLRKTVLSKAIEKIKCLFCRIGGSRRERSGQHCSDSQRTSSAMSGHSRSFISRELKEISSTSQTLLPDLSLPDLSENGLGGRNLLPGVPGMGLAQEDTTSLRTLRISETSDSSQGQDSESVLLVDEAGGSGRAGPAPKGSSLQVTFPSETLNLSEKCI

The test concerns the target EP4 (Homo sapiens, UniProt P35408). The experiment in a line: EP4 Antagonism by CRE-PLAP Reporter Assay (SE302 cells, PGE2-stimulated). The class given is cell-based. Also on record: HEK293 cells express endogenous EP4; endogenous in cells; host or cells: SE302 (HEK293 clone with CRE-PLAP reporter). The note with it: SE302 (HEK293) cells, 3 ng/mL PGE2, overnight; single or multiple assay average values. A digest of the protocol:
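HEK293-derived SE302 cells with endogenous EP4 and CRE-driven secreted PLAP, in serum-free medium with 0.1% BSA, stimulated overnight with 3 ng/mL PGE2 plus compound. Supernatant PLAP read by luminescence (pH 11 carbonate buffer, 2 h). IC50 from % of control, normalized to DMSO with and without PGE2.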
For orientation: A reporter such as luciferase makes a cellular process visible.
With `C[C@H](NC(=O)c1c(C(F)(F)F)nn2c1N(Cc1cccc(C(F)(F)F)c1)CC2)c1ccc(C(=O)NS(=O)(=O)c2ccc(N)cc2)cc1` [Compound 72, (S)—N-(1-(4-(((4-aminophenyl)sulfonyl)carbamoyl)phenyl)ethyl)-6-(trifluoromethyl)-1-(3-(trifluoromethyl)benzyl)-2,3-dihydro-1H-imidazo[1,2-b]pyrazole-7-carboxamide], the half-maximal inhibitory concentration (IC50) came to 51.2 nM.
For `C[C@H](NC(=O)c1c(C(F)(F)F)nn2c1N(Cc1cccc(CN3CCn4nc(C(F)(F)F)c(C(=O)N[C@@H](C)c5ccc(C(=O)O)cc5)c43)c1)CC2)c1ccc(C(=O)O)cc1` [Compound 66, 4,4′-((1S,1′S)-((1,1′-(1,3-phenylenebis(methylene))bis(6-(trifluoromethyl)-2,3-dihydro-1H-imidazo[1,2-b]pyrazole-1,7-diyl-7-carbonyl))bis(azanediyl))bis(ethane-1,1-diyl))dibenzoic Acid], the IC50 was determined as 35.8 nM.
`Cc1nn2c(c1C(=O)N[C@@H](C)c1ccc(C(=O)O)cc1)N(Cc1ccc(Cl)cc1)CC2` [Compound 32, (S)-4-(1-(1-(4-chlorobenzyl)-6-methyl-2,3-dihydro-1H-imidazo[1,2-b]pyrazole-7-carboxamido)ethyl)benzoic Acid] came in with a concentration for half-maximal inhibition (IC50) of 4.23 nM.
For `C[C@H](NC(=O)c1c(C(F)(F)F)nn2c1N(Cc1cccc(C(F)(F)F)c1)C[C@H]2CF)c1ccc(C(=O)O)cc1` [Compound 81, 4-((S)-1-((S)-3-(fluoromethyl)-6-(trifluoromethyl)-1-(3-(trifluoromethyl)benzyl)-2,3-dihydro-1H-imidazo[1,2-b]pyrazole-7-carboxamido)ethyl)benzoic acid] the value was 0.26 nM; for `C[C@H](NC(=O)c1c(C(F)(F)F)nn2c1N(Cc1cc(Cl)cc(Cl)c1)CC2)c1ccc(C(=O)O)cc1` [Compound 7, (S)-4-(1-(1-(3,5-dichlorobenzyl)-6-(trifluoromethyl)-2,3-dihydro-1H-imidazo[1,2-b]pyrazole-7-carboxamido)ethyl)benzoic Acid], 0.32 nM.
As to `C[C@H](NC(=O)c1c(C(F)(F)F)nn2c1N(Cc1ccccc1F)CC2)c1ccc(C(=O)O)cc1` [Compound 16, (S)-4-(1-(1-(2-fluorobenzyl)-6-(trifluoromethyl)-2,3-dihydro-1H-imidazo[1,2-b]pyrazole-7-carboxamido)ethyl)benzoic Acid], the IC50 is 1.4 nM.
The compound `C[C@H](NC(=O)c1c(C(F)(F)F)nn2c1N(Cc1ccc(C(F)(F)F)cc1)CC2)c1ccc(-c2nn[nH]n2)cc1` [Compound 37, (S)—N-(1-(4-(2H-tetrazol-5-yl)phenyl)ethyl)-6-(trifluoromethyl)-1-(4-(trifluoromethyl)benzyl)-2,3-dihydro-1H-imidazo[1,2-b]pyrazole-7-carboxamide] registered an IC50 of 0.45 nM.
Next, `C[C@H](NC(=O)c1c(C(F)(F)F)nn2c1N(Cc1cccc(C(F)(F)F)c1)CCC2)c1ccc(C(=O)O)cc1` [Compound 44, (S)-4-(1-(2-(trifluoromethyl)-4-(3-(trifluoromethyl)benzyl)-4,5,6,7-tetrahydropyrazolo[1,5-a]pyrimidine-3-carboxamido)ethyl)benzoic Acid]: 6.83 nM; `C[C@H](NC(=O)c1c(C(F)(F)F)nn2c1N(Cc1cccc(C(F)(F)F)c1)CC2)c1ccc(C(=O)O)cc1F` [Compound 23, (S)-3-fluoro-4-(1-(6-(trifluoromethyl)-1-(3-(trifluoromethyl)benzyl)-2,3-dihydro-1H-imidazo[1,2-b]pyrazole-7-carboxamido)ethyl)benzoic Acid]: 0.41 nM.
Compound `C[C@H](NC(=O)c1c(C(F)(F)F)nn2c1N(Cc1cccc(C(F)(F)F)c1)CC2)c1ccc(C(=O)O)nc1` [Compound 38, (S)-5-(1-(6-(trifluoromethyl)-1-(3-(trifluoromethyl)benzyl)-2,3-dihydro-1H-imidazo[1,2-b]pyrazole-7-carboxamido)ethyl)picolinic Acid] returned an IC50 of 17.1 nM.
Compound `C[C@H](NC(=O)c1c(C(F)(F)F)nn2c1N(Cc1ccc(Cl)cc1)CC2)c1ccc(C(=O)O)cc1` [Compound 31, (S)-4-(1-(1-(4-chlorobenzyl)-6-(trifluoromethyl)-2,3-dihydro-1H-imidazo[1,2-b]pyrazole-7-carboxamido)ethyl)benzoic Acid] came in with a half-inhibitory concentration (IC50) of 0.99 nM.
Compound `C[C@H](NC(=O)c1c(C(F)(F)F)nn2c1N(Cc1ccc(OC(F)(F)F)cc1)CC2)c1ccc(C(=O)O)cc1` [Compound 10, (S)-4-(1-(1-(4-(trifluoromethoxy)benzyl)-6-(trifluoromethyl)-2,3-dihydro-1H-imidazo[1,2-b]pyrazole-7-carboxamido)ethyl)benzoic Acid] gave an IC50 of 12.5 nM.
For `C[C@H](NC(=O)c1c(C(F)(F)F)nn2c1N(Cc1ccc(C(F)(F)F)cc1)CC2)c1ccc(C(=O)O)cc1F` [Compound 22, (S)-3-fluoro-4-(1-(6-(trifluoromethyl)-1-(4-(trifluoromethyl)benzyl)-2,3-dihydro-1H-imidazo[1,2-b]pyrazole-7-carboxamido)ethyl)benzoic Acid], the IC50 was determined as 1.91 nM.
For `O=C(O)c1ccc(C2(NC(=O)c3c(C(F)(F)F)nn4c3N(Cc3ccc(Cl)cc3)CC4)CC2)cc1` [Compound 30, 4-(1-(1-(4-chlorobenzyl)-6-(trifluoromethyl)-2,3-dihydro-1H-imidazo[1,2-b]pyrazole-7-carboxamido)cyclopropyl)benzoic Acid] the value was 1.35 nM.
Next, `C[C@H](NC(=O)c1c(C(F)(F)F)nn2c1N(Cc1cccc(N(C)C)c1)CC2)c1ccc(C(=O)O)cc1` [Compound 89, (S)-4-(1-(1-(3-(dimethylamino)benzyl)-6-(trifluoromethyl)-2,3-dihydro-1H-imidazo[1,2-b]pyrazole-7-carboxamido)ethyl)benzoic Acid]: 1.57 nM; `C[C@H](NC(=O)c1c(-c2ccccc2)nn2c1N(Cc1cccc(C(F)(F)F)c1)CC2)c1ccc(C(=O)O)cc1` [Compound 60, (S)-4-(1-(6-phenyl-1-(3-(trifluoromethyl)benzyl)-2,3-dihydro-1H-imidazo[1,2-b]pyrazole-7-carboxamido)ethyl)benzoic Acid]: 7.65 nM; `Cc1nn2c(c1C(=O)NCc1ccc(C(=O)O)cc1)N(Cc1ccc(Cl)cc1)CC2` [Compound 33, 4-((1-(4-chlorobenzyl)-6-methyl-2,3-dihydro-1H-imidazo[1,2-b]pyrazole-7-carboxamido)methyl)benzoic Acid]: 27.6 nM.
Take `C[C@H](NC(=O)c1c(C(F)(F)F)nn2c1N(Cc1cc(Cl)cc(C(F)(F)F)c1)CC2)c1ccc(C(=O)O)cc1` [Compound 6, (S)-4-(1-(1-(3-chloro-5-(trifluoromethyl)benzyl)-6-(trifluoromethyl)-2,3-dihydro-1H-imidazo[1,2-b]pyrazole-7-carboxamido)ethyl)benzoic Acid]: the IC50 amounted to 0.14 nM.
In turn, `C[C@H](NC(=O)c1c(C(F)(F)CO)nn2c1N(Cc1cccc(C(F)(F)F)c1)CC2)c1ccc(C(=O)O)cc1` [Compound 100, (S)-4-(1-(6-(1,1-Difluoro-2-hydroxyethyl)-1-(3-(trifluoromethyl)benzyl)-2,3-dihydro-1H-imidazo[1,2-b]pyrazole-7-carboxamido)ethyl)benzoic Acid] came in with an IC50 of 8.96 nM.
With `Cc1nn2c(c1C(=O)N[C@@H](C)c1ccc(C(=O)O)cc1)N([C@H](C)c1ccc(C(F)(F)F)cc1)CC2` [Compound 35, 4-((S)-1-(6-methyl-1-((R)-1-(4-(trifluoromethyl)phenyl)ethyl)-2,3-dihydro-1H-imidazo[1,2-b]pyrazole-7-carboxamido)ethyl)benzoic Acid], the IC50 is 11.1 nM.
Turning to `Cc1cn(Cc2cccc(C(F)(F)F)c2)c2c(C(=O)N[C@@H](C)c3ccc(C(=O)O)cc3)c(C(F)(F)F)nn12` [Compound 82, (S)-4-(1-(3-methyl-6-(trifluoromethyl)-1-(3-(trifluoromethyl)benzyl)-1H-imidazo[1,2-b]pyrazole-7-carboxamido)ethyl)benzoic acid], half-maximal inhibition (IC50) was put at 1.1 nM.
In the case of `C[C@H](NC(=O)c1c(C(F)(F)F)nn2c1N(Cc1cccc(CCl)c1)CC2)c1ccc(C(=O)O)cc1` [Compound 65, (S)-4-(1-(1-(3-(chloromethyl)benzyl)-6-(trifluoromethyl)-2,3-dihydro-1H-imidazo[1,2-b]pyrazole-7-carboxamido)ethyl)benzoic acid], the concentration for half-maximal inhibition (IC50) was found to be 0.93 nM.
`COC(=O)c1ccc([C@H](C)NC(=O)c2c(C(F)(F)F)nn3c2N(Cc2cccc(C(F)(F)F)c2)CC3)cc1F` [Compound 24, Methyl (S)-2-fluoro-4-(1-(6-(trifluoromethyl)-1-(3-(trifluoromethyl)benzyl)-2,3-dihydro-1H-imidazo[1,2-b]pyrazole-7-carboxamido)ethyl)benzoate] yielded a concentration for half-maximal inhibition (IC50) of 8.2 nM.
As to `Cc1nn2c(c1C(=O)NC1(c3ccc(C(=O)O)cc3)CC1)N(Cc1ccc(C(F)(F)F)cc1)CC2` [Compound 28, 4-(1-(6-methyl-1-(4-(trifluoromethyl)benzyl)-2,3-dihydro-1H-imidazo[1,2-b]pyrazole-7-carboxamido)cyclopropyl)benzoic Acid], the IC50 was 8.68 nM.
In turn, `C[C@H](NC(=O)c1c(C(F)(F)F)nn2c1N(Cc1cccc(C(F)(F)F)c1)CC2)c1ccc(C(=O)O)cn1` [Compound 39, (S)-6-(1-(6-(trifluoromethyl)-1-(3-(trifluoromethyl)benzyl)-2,3-dihydro-1H-imidazo[1,2-b]pyrazole-7-carboxamido)ethyl)nicotinic Acid] displayed an IC50 of 4.73 nM.
As for `C[C@H](NC(=O)c1c(C(F)(F)F)nn2c1N(Cc1ccccc1Cl)CCC2)c1ccc(C(=O)O)cc1` [Compound 61, (S)-4-(1-(4-(2-chlorobenzyl)-2-(trifluoromethyl)-4,5,6,7-tetrahydropyrazolo[1,5-a]pyrimidine-3-carboxamido)ethyl)benzoic Acid], the IC50 stood at 100 nM.
